# From US20060135569A1, “Use of benzisoselenazolone compounds against ischemic myocardial damage” (priority 2002, published 2006)
# Marks after values point to notes of the source that are not given here.
# Test system: acute myocardial ischemia in anesthetized dogs
# Assay: Acute myocardial ischemia and infarction in anesthetized dogs
# Type: in vivo, dog
# Experimental: Dogs were divided into three groups: 1, vehicle control group, PEG 1 ml/kg, n=5; 2, dilthiazem group, 5 mg/kg, n=5; 3, IMM-004 group, 30 mg/kg, n=5. The tested drugs were prepared in distilled water at volume of 1 ml/kg. The tested items were administrated via duodenum by animals.
# [1] = N-BT staining, Dilthiazem 5 mg/kg, IMM-004 30 mg/kg, % according to b137
compound,measurement,setting,value
"COc1ccc([C@@H]2Sc3ccccc3N(CCN(C)C)C(=O)[C@@H]2OC(C)=O)cc1 [Dilthiazem, reference compound]",blood oxygen concentration,5 mg/kg,Significant increase
same,myocardial oxygen consumption,5 mg/kg,decrease
same,"severity of myocardial ischemia (Σ-ST), in words","5 mg/kg via duodenum, from 90 min, lasted for 180 min after administration",reduced
same,Infarction area/ heart area,[1],1.54 ± 0.40
same,Infarction area/ventricle area,[1],3.54 ± 3.74
same,Infarction area mm^2,"N-BT staining, Dilthiazem 5 mg/kg, IMM-004 30 mg/kg, X ± SD",186.50 ± 21.2*** mm^2
same,"Myocardial infarction size, in words","N-BT staining, IMM-004 30 mg/kg, dilthiazem 5 mg/kg",significantly reduced
same,"Coronary flows, in words","after treatment, dilthiazem 5 mg/kg, IMM-004 30 mg/kg",significantly increased
